Experiments:
[1] = Absorption characteristic of NIR dye in dichloromethane; format: physicochemical
Description: The obtained NIR dyes were each dissolved in dichloromethane, and an ultraviolet-visible spectrophotometer (manufactured by Hitachi High Technologies Co., Ltd., U-4100 type) was used to measure each spectral transmittance curve, from which a maximum absorption wavelength λmax, a wavelength λ80 at which the transmittance becomes 80% on a shorter wavelength side than the maximum absorption wavelength with the transmittance at the maximum absorption wavelength set to 10%, a difference between the maximum absorption wavelength λmax and the wavelength λ80 (λmax−λ80), a maximum absorption constant εA in light of a wavelength range of 430 to 550 nm, a maximum absorption constant εB in light of a wavelength range of 670 to 730 nm, and a ratio of these (εB/εA) were calculated. Note that the U-4100 type was used for the measurement of spectral transmittance curves in each of the following examples.

[2] = Solubility of NIR dye to resin solution; format: physicochemical; conditions: stirred two hours; for Solubility evaluation, Polyimide resin: 12.5 mass % C3450 in cyclohexanone:NMP=1:1, 50° C.; for Solubility evaluation, Polyester resin: 12.5 mass % OKP850 in cyclohexanone:NMP=1:1, 50° C.; for Solubility evaluation, Polyethersulfone resin: 12.5 mass % PES4800 in cyclohexanone:NMP=1:1, 50° C.
Procedure: Results are illustrated in Table 8 together with the kinds of the used dyes. Note that the temperature of the resin solution in the solubility test was set to 50° C., the NIR dye was put into the resin solution, the resultant resin solution was stirred for two hours, and the presence/absence of occurrence of the dissolution was observed visually. Evaluation criteria of the solubility are as follows.
A: Solubility of 9 mass % or more
B: Solubility of 7 mass % or more and less than 9 mass %
C: Solubility of 5 mass % or more and less than 7 mass %
D: Solubility of 3 mass % or more and less than 5 mass %
E: Solubility of 1 mass % or more and less than 3 mass %
F: Solubility of less than 1 mass %

εA (maximum absorption constant, 430 to 550 nm) [1] | εB (maximum absorption constant, 670 to 730 nm) [1] | εB/εA [1] | λ80 (wavelength of 80% transmittance, shorter side of λmax, transmittance at λmax set to 10%) [1] [nm] | λmax (maximum absorption wavelength) [1] [nm] | λmax-λ80 [1] [nm] | Solubility evaluation, Polyimide resin [2] | Solubility evaluation, Polyester resin [2] | Solubility evaluation, Polyethersulfone resin [2] | SMILES
0.016 | 1 | 63.9 | 647 | 697 | 50 | A (9 mass % or more) | A (9 mass % or more) | A (9 mass % or more) | CCCOC(=O)Nc1cc2c(cc1C1=C([O-])C(=c3cc4c(cc3NC(=O)OCCC)=[N+](C(C)C)C(C)C4(C)C)C1=O)C(C)(C)C(C)N2C(C)C (stereo not drawn) [A1-6]
0.017 | 1 | 59.7 | 656 | 707 | 51 | A (9 mass % or more) | A (9 mass % or more) | A (9 mass % or more) | CCCOC(=O)Nc1cc2c(cc1C1=C([O-])C(=c3cc4c(cc3NC(=O)OCCC)=[N+](C(C)(CC)CC)C(C)C4(C)C)C1=O)C(C)(C)C(C)N2C(C)(CC)CC (stereo not drawn) [A1-12]
0.019 | 1 | 51.8 | 659 | 707 | 48 | A (9 mass % or more) | A (9 mass % or more) | A (9 mass % or more) | CCCCCOC(=O)Nc1cc2c(cc1C1=C([O-])C(=c3cc4c(cc3NC(=O)OCCCCC)=[N+](C(C)(CC)CC)C(C)C4(C)C)C1=O)C(C)(C)C(C)N2C(C)(CC)CC (stereo not drawn) [A1-13]
0.016 | 1 | 61.8 | 647 | 697 | 50 | A (9 mass % or more) | A (9 mass % or more) | A (9 mass % or more) | CCCCCOC(=O)Nc1cc2c(cc1C1=C([O-])C(=c3cc4c(cc3NC(=O)OCCCCC)=[N+](C(C)C)C(C)C4(C)C)C1=O)C(C)(C)C(C)N2C(C)C (stereo not drawn) [A1-7]
0.013 | 1 | 77.5 | 633 | 691 | 58 | A (9 mass % or more) | A (9 mass % or more) | A (9 mass % or more) | CCCCCOC(=O)Nc1cc2c(cc1C1=C([O-])C(=c3cc4c(cc3NC(=O)OCCCCC)=[N+](C)C(C)C4(C)C)C1=O)C(C)(C)C(C)N2C (stereo not drawn) [A1-3]
0.019 | 1 | 53.5 | 632 | 690 | 58 | A (9 mass % or more) | A (9 mass % or more) | A (9 mass % or more) | CCCCC(CC)COC(=O)Nc1cc2c(cc1C1=C([O-])C(=c3cc4c(cc3NC(=O)OCC(CC)CCCC)=[N+](C)C(C)C4(C)C)C1=O)C(C)(C)C(C)N2C (stereo not drawn) [A1-4]
0.020 | 1 | 49.1 | 656 | 706 | 50 | – | – | – | CCCCC(CC)C(=O)Nc1cc2c(cc1C1=C([O-])C(=c3cc4c(cc3NC(=O)C(CC)CCCC)=[N+](C(C)C)C(C)C4(C)C)C1=O)C(C)(C)C(C)N2C(C)C (stereo not drawn) [A3, reference compound]
0.017 | 1 | 59.0 | 633 | 691 | 58 | A (9 mass % or more) | A (9 mass % or more) | A (9 mass % or more) | CCCOC(=O)Nc1cc2c(cc1C1=C([O-])C(=c3cc4c(cc3NC(=O)OCCC)=[N+](C)C(C)C4(C)C)C1=O)C(C)(C)C(C)N2C (stereo not drawn) [A1-2]
0.029 | 1 | 34.7 | 659 | 710 | 51 | – | – | – | CCCCCCCOc1ccc(C(=O)Nc2cc3c(cc2C2=C([O-])C(=c4cc5c(cc4NC(=O)c4ccc(OCCCCCCC)cc4)=[N+](C(C)C)C(C)C5(C)C)C2=O)C(C)(C)C(C)N3C(C)C)cc1 (stereo not drawn) [A4, reference compound]
0.016 | 1 | 63.9 | 636 | 693 | 57 | F (Less than 1 mass %) | F (Less than 1 mass %) | F (Less than 1 mass %) | CCCc1ccc(OC(=O)Nc2cc3c(cc2C2=C([O-])C(=c4cc5c(cc4NC(=O)Oc4ccc(CCC)cc4)=[N+](C)C(C)C5(C)C)C2=O)C(C)(C)C(C)N3C)cc1 (stereo not drawn) [A1-5]
0.017 | 1 | 60.2 | 647 | 697 | 50 | A (9 mass % or more) | A (9 mass % or more) | A (9 mass % or more) | CC(C)OC(=O)Nc1cc2c(cc1C1=C([O-])C(=c3cc4c(cc3NC(=O)OC(C)C)=[N+](C(C)C)C(C)C4(C)C)C1=O)C(C)(C)C(C)N2C(C)C (stereo not drawn) [A1-8]
0.016 | 1 | 61.3 | 658 | 705 | 47 | A (9 mass % or more) | A (9 mass % or more) | A (9 mass % or more) | CCCCCOC(=O)Nc1cc2c(cc1C1=C([O-])C(=c3cc4c(cc3NC(=O)OCCCCC)=[N+](C(C)(C)CC)C(C)C4(C)C)C1=O)C(C)(C)C(C)N2C(C)(C)CC (stereo not drawn) [A1-11]
0.018 | 1 | 55.5 | 658 | 705 | 47 | A (9 mass % or more) | A (9 mass % or more) | A (9 mass % or more) | CCCOC(=O)Nc1cc2c(cc1C1=C([O-])C(=c3cc4c(cc3NC(=O)OCCC)=[N+](C(C)(C)CC)C(C)C4(C)C)C1=O)C(C)(C)C(C)N2C(C)(C)CC (stereo not drawn) [A1-10]

SMILES | εA (maximum absorption constant, 430 to 550 nm) [1] | εB (maximum absorption constant, 670 to 730 nm) [1] | εB/εA [1] | λ80 (wavelength of 80% transmittance, shorter side of λmax, transmittance at λmax set to 10%) [1] [nm] | λmax (maximum absorption wavelength) [1] [nm] | λmax-λ80 [1] [nm] | Solubility evaluation, Polyimide resin [2] | Solubility evaluation, Polyester resin [2] | Solubility evaluation, Polyethersulfone resin [2]
COC(=O)Nc1cc2c(cc1C1=C([O-])C(=c3cc4c(cc3NC(=O)OC)=[N+](C)C(C)C4(C)C)C1=O)C(C)(C)C(C)N2C (stereo not drawn) [A1-1] | 0.014 | 1 | 71.1 | 632 | 691 | 59 | E (1 mass % or more and less than 3 mass %) | D (3 mass % or more and less than 5 mass %) | E (1 mass % or more and less than 3 mass %)
CCCc1ccc(OC(=O)Nc2cc3c(cc2C2=C([O-])C(=c4cc5c(cc4NC(=O)Oc4ccc(CCC)cc4)=[N+](C(C)C)C(C)C5(C)C)C2=O)C(C)(C)C(C)N3C(C)C)cc1 (stereo not drawn) [A1-9] | 0.013 | 1 | 75.7 | 651 | 700 | 49 | E (1 mass % or more and less than 3 mass %) | E (1 mass % or more and less than 3 mass %) | E (1 mass % or more and less than 3 mass %)
